Test: Plasma noribogaine glucuronide pharmacokinetics after noribogaine dosing, healthy volunteers
Format: in vivo, human
Conditions: for AUC0-216 / AUC0-∞ / Cmax / Tmax / t1/2: healthy male volunteers, mean (n = 6)
[1] = plasma glucuronide after single oral 30 mg noribogaine
[2] = plasma glucuronide after single oral 60 mg noribogaine

Q: What does the source list for `CC[C@H]1C[C@@H]2C[C@H]3c4[nH]c5ccc(OC6OC(C(=O)O)C(O)C(O)C6O)cc5c4CCN(C2)[C@@H]13` (some centres unmarked) [Noribogaine glucuronide]?
A: Mean half-life of plasma noribogaine glucuronide (30 mg and 60 mg noribogaine dose groups): 21 to 23 h; proportion of noribogaine glucuronide Cmax and AUC relative to noribogaine (both dose groups (30 mg and 60 mg)): 3-4%; AUC0-216 [1]: 25.7 ng·h/mL; AUC0-∞ [1]: 25.8 ng·h/mL; Cmax [1]: 1.8 ng/mL; Tmax [1]: 3.0 h; t1/2 [1]: 20.6 h; AUC0-216 [2]: 65.0 ng·h/mL; AUC0-∞ [2]: 67.1 ng·h/mL; Cmax [2]: 4.1 ng/mL; Tmax [2]: 3.8 h; t1/2 [2]: 23.1 h; time of peak concentrations after noribogaine dosing (plasma glucuronide, 30 mg and 60 mg noribogaine dose groups): 3 to 4 h; time by which noribogaine glucuronide was detected in all subjects (plasma, 30 mg and 60 mg noribogaine dose groups): ≤ 0.75 h

— patent US20150231147A1, “METHODS FOR ACUTE AND LONG-TERM TREATMENT OF DRUG ADDICTION” (DemeRx, Inc., priority 2014, published 2015)
